Test results: patent US11584744B2 (UNIVERSITY OF WASHINGTON, priority 2017, dated 2023)
In brackets after ≈: the same amount, converted by molar mass. Several values for one entry are separate records, joined by “and”; a condition that tells them apart may be missing. Equal entries are not always repeated. Where two headings read alike, the source gives them in different places.

Assays:
C. parvum = C. parvum growth inhibition; assay type: cell-based, Cryptosporidium parvum; conditions: read-out: (J) C. parvum EC50
T. cruzi = T. cruzi growth inhibition; assay type: cell-based, Trypanosoma cruzi; conditions: read-out: (E) T. cruzi EC50
[1] = biological target: recombinant S. aureus MetRS enzyme (Staphylococcus aureus, UniProt A0A0H2XID2); experiment: Inhibition of SaMetRS, ATP depletion assay; assay type: biochemical; conditions: read-out: (B) MetRS (S. aureus) IC50
Method in brief: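 IC50 values come from sigmoidal fits of percent inhibition, based on ATP left after 120 min as measured by Kinase-Glo. Substrates were 20 μM L-methionine and 150 nM ATP, added after compounds sat 15 min at room temperature with 25 nM His-tagged SaMetRS, bulk E. coli tRNA, pH 7.9 HEPES buffer and 2% DMSO.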

T. brucei = T. brucei growth inhibition; assay type: cell-based, Trypanosoma brucei; conditions: read-out: (D) T. brucei EC50
[2] = system: S. aureus MSSA (ATCC 29213); experiment: MIC susceptibility testing; assay type: cell-based, Staphylococcus aureus; conditions: S. aureus ATCC 29213; for MIC: Staphylococcus aureus, read-out: (F) S. aureus (ATCC 29213) MIC
[3] = system: S. aureus MRSA (ATCC 33591); experiment: MIC susceptibility testing; assay type: cell-based, Staphylococcus aureus; conditions: MRSA ATCC33591; for MIC: Staphylococcus aureus, read-out: (G) MRSA (ATCC33591) MIC
Method in brief: (§1)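 CLSI broth microdilution with two-fold compound dilutions, in triplicate; cells added in medium at 1×10^6 CFUs/mL, DMSO ≤0.5%. Media: MHB for S. aureus, CA-MHB for E. coli and E. faecium, CA-MHB plus 3% laked horse blood for S. pyogenes (5% CO2).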

S. pyogenes (ATCC 19615) = experiment: MIC susceptibility testing; assay type: cell-based; conditions: Streptococcus pyogenes, ATCC19615, S. pyogenes ATCC 19615; read-out: (H) S. pyogenes (ATCC 19615) MIC
From the text: Media and culture conditions. Mueller Hinton broth (MHB), cation adjusted Mueller Hinton broth (CA-MHB), and Brain Heart Infusion broth (BHI) were purchased from Becton Dickinson (Franklin Lakes, N.J.). Tryptic soy agar (TSA) plates, TSA with 5% sheep blood plates, and CA-MHB with 3% laked horse blood were purchased from Remel (San Diego, Calif.). MHB was used to assay all Staphylococcus aureus strains. CA-MHB was used for Staphylococcus epidermidis, Enterococcus faecalis, Enterococcus faecium, Escherichia coli, and Pseudomonas aeruginosa. CA-MHB supplemented with 3% laked horse blood was used for Streptococcus pneumoniae and Streptococcus pyogenes. Staphylococcus, Enterococcus, Escherichia, and Pseudomonas strains were cultured at 37° C. with ambient air. Streptococcus strains were cultured in 37° C. with 5% CO2. Separate conditions for radiolabeled precursor uptake assays are described below.
Susceptibility testing: Minimum inhibitory concentration (MIC) determinations were performed in triplicate in 96-well round bottom microtiter plates (Corning, Corning N.Y.) as described by the Clinical and Laboratory Standards Institute (CLSI). Serial two-fold dilutions of compounds were added to plates in 50 μL volumes. An additional 50 μL of media containing bacterial cells (1×10^6 CFUs/mL) was then added to each well. Maximum DMSO concentrations were 0.5%. Plates were incubated at 37° C. for at least 18 h before reading the susceptibility result by optical absorbance (OD600) using a BioTek ELx800. The lowest concentration causing ≥90% growth inhibition compared to the untreated control was recorded as the MIC (and also corresponded to the visual MIC). MICs were measured at least twice and the higher value (if different) was recorded herein.

MetRS (C. parvum) = MetRS (C. parvum) (Cryptosporidium parvum, UniProt Q5CVN0); experiment: MetRS (C. parvum) enzyme inhibition; assay type: biochemical; conditions: read-out: (C) MetRS (C. parvum) IC50
[4] = system: E. faecium VRE (ATCC 51559); experiment: MIC susceptibility testing; assay type: cell-based, Enterococcus faecium; conditions: E. faecium ATCC 51559; for MIC: Enterococcus faecium, read-out: (I) E. faecium (ATCC 51559) MIC
Method in brief: as §1

MetRS (T. brucei) = biological target: T1, MetRS (T. brucei) (Trypanosoma brucei brucei, UniProt Q38C91); experiment: MetRS (T. brucei) enzyme inhibition; assay type: biochemical
T1 sequence (Q38C91 1-773): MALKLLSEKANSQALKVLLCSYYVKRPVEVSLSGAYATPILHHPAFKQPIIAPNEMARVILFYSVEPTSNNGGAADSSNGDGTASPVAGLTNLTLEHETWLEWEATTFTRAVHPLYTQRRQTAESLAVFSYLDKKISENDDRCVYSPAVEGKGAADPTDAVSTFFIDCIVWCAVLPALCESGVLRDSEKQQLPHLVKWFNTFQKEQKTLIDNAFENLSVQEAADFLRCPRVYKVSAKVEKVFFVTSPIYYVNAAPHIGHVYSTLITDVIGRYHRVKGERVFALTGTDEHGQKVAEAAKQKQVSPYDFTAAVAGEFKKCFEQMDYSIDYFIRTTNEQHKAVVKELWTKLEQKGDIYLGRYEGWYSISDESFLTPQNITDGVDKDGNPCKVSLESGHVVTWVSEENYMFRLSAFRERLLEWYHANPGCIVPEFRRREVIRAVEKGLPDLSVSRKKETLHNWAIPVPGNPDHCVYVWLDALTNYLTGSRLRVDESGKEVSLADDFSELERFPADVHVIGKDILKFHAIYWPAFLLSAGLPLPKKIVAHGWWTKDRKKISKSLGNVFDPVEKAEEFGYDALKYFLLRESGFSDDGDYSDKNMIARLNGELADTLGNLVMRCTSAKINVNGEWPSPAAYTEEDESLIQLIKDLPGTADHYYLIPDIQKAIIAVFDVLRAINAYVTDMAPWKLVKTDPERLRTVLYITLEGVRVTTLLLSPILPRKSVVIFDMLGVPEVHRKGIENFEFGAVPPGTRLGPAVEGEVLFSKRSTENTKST

[5] = system: G. lamblia (ATCC GL50803); experiment: G. lamblia growth inhibition; assay type: cell-based; conditions: Giardia duodenalis, read-out: (K) G. lamblia (ATCC GL50803) EC50

MetRS (C. parvum), sequence (Q5CVN0 entry or part of it): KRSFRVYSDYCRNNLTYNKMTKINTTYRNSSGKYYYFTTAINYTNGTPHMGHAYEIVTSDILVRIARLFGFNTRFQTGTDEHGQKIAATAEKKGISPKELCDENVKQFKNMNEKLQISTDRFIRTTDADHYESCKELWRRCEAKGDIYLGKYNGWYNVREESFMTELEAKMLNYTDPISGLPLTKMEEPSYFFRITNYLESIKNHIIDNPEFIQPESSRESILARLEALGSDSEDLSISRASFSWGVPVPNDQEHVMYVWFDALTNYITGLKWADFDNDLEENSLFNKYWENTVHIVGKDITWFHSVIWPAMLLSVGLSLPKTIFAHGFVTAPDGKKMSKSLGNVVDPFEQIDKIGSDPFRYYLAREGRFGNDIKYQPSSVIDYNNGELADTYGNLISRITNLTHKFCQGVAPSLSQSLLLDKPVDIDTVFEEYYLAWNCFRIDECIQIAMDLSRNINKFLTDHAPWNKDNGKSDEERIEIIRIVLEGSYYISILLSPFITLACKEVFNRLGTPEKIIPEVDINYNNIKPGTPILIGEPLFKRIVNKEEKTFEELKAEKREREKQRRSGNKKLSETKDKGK

| EC50 (C. parvum; Cryptosporidium parvum) [nM] | EC50 (T. brucei; Trypanosoma brucei) [nM] | MIC [2] [µg/mL] | MIC [3] [µg/mL] | IC50 (MetRS (C. parvum)) [nM] | EC50 (C. parvum) | EC50 [5] [nM] | (F) S. aureus (ATCC 29213) MIC [2] | EC50 (T. brucei) | (G) MRSA (ATCC33591) MIC [3] [µg/mL] | EC50 (T. cruzi) [nM] | SMILES | EC50 (T. cruzi; Trypanosoma cruzi) [nM] | IC50 [1] [nM] | MIC (S. pyogenes (ATCC 19615)) [µg/mL] | MIC [4] [µg/mL] | IC50 (MetRS (T. brucei)) [nM] | (I) E. faecium (ATCC 51559) MIC [4] |
| --- | --- | --- | --- | --- | --- | --- | --- | --- | --- | --- | --- | --- | --- | --- | --- | --- | --- |
| 144 | – | 0.259 (≈ 0.538 µM) | – | < 40 | 195 nM | 10 | – | – | – | – | COc1ccc(-c2ccc(NC(C)=O)c3nc(Cc4nc5nc(Cl)ccc5[nH]4)cn23)c(Cl)c1 [Compound 2169, N-[2-({5-chloro-1H-imidazo[4,5-b]pyridin-2-yl}methyl)-5-(2-chloro-4-methoxyphenyl)imidazo[1,2-a]pyridin-8-yl]acetamide] | – | – | – | – | < 40 | – |
| 129 | – | 0.218 (≈ 0.458 µM) | 0.334 (≈ 0.701 µM) | < 40 | – | 30 | 0.424 µg/mL | – | – | – | COc1ccc(Cc2cn(Cc3nc4nc(Cl)ccc4[nH]3)c(=O)n2CC(C)(C)O)c(Cl)c1 [Compound 2207, 1-({5-chloro-1H-imidazo[4,5-b]pyridin-2-yl}methyl)-4-[(2-chloro-4-methoxyphenyl)methyl]-3-(2-hydroxy-2-methylpropyl)-2,3-dihydro-1H-imidazol-2-one] | – | – | – | – | < 40 | – |
| – | < 0.91 | – | < 0.00781 | < 40 | – | 10 | – | 0.66 nM | – | – | COc1cc(Cl)c(-c2cccc3c2CN(Cc2nc4nc(Cl)ccc4[nH]2)C3=O)cc1OC [Compound 2231, 2-((5-chloro-1H-imidazo[4,5-b]pyridin-2-yl)methyl)-4-(2-chloro-4,5-dimethoxyphenyl)isoindolin-1-one] | – | – | – | – | – | – |
| 1600 | 2.12 | – | 0.104 (≈ 0.216 µM) | < 40 | > 2000 nM | – | – | 1.52 nM and 1.8 nM and 1.71 nM | 0.113 | – | COc1cc(Cl)c(Cc2cn(Cc3nc4ccc(Cl)nc4[nH]3)c([S+](C)[O-])n2)cc1OC (centres unmarked) [Compound 2241, 1-({5-chloro-1H-imidazo[4,5-b]pyridin-2-yl}methyl)-4-[(2-chloro-4,5-dimethoxyphenyl)methyl]-2-methanesulfinyl-1H-imidazole] | – | – | 0.847 (≈ 1.76 µM) | 0.0277 (≈ 0.0577 µM) | – | 0.0206, μg/ml and 0.0160, μg/ml and 0.0189 μg/ml |
| 1070 | 30.9 | > 2 | – | 122 | 1200 nM and 1140 nM and > 2000 nM | 1200 | 3.33, μg/ml and 3.16 μg/ml | 31.6 nM | – | 114 | COc1ccc(-c2nccn3c(=O)n(Cc4nc5nc(Cl)ccc5[nH]4)cc23)c(Cl)c1 [Compound 2249, 2-({5-chloro-1H-imidazo[4,5-b]pyridin-2-yl}methyl)-8-(2-chloro-4-methoxyphenyl)-2H,3H-imidazo[1,5-a]pyrazin-3-one] | 76.4 | – | – | – | – | – |
| – | 1.79 | 1.16 (≈ 2.42 µM) | > 2 | – | – | – | – | – | – | – | CCNC(=O)n1c(Cc2ccc(Cl)cc2Cl)cn(Cc2nc3nc(Cl)ccc3[nH]2)c1=O [Compound 2288, 3-({5-chloro-1H-imidazo[4,5-b]pyridin-2-yl}methyl)-5-[(2,4-dichlorophenyl)methyl]—N-ethyl-2-oxo-2,3-dihydro-1H-imidazole-1-carboxamide] | 183 | – | > 2 | – | – | – |

| SMILES | EC50 (C. parvum; Cryptosporidium parvum) [nM] | EC50 (T. brucei; Trypanosoma brucei) [nM] | MIC [2] [µg/mL] | MIC [3] [µg/mL] | IC50 (MetRS (C. parvum)) [nM] | EC50 (C. parvum) | EC50 [5] [nM] | (F) S. aureus (ATCC 29213) MIC [2] | EC50 (T. brucei) | (G) MRSA (ATCC33591) MIC [3] [µg/mL] | EC50 (T. cruzi) [nM] | EC50 (T. cruzi; Trypanosoma cruzi) [nM] | IC50 [1] [nM] | MIC (S. pyogenes (ATCC 19615)) [µg/mL] | MIC [4] [µg/mL] | IC50 (MetRS (T. brucei)) [nM] | (I) E. faecium (ATCC 51559) MIC [4] |
| --- | --- | --- | --- | --- | --- | --- | --- | --- | --- | --- | --- | --- | --- | --- | --- | --- | --- |
| C[S+]([O-])c1nc(Cc2ccc(Cl)cc2Cl)cn1Cc1nc2nc(Cl)ccc2[nH]1 (centres unmarked) [Compound 2110, 1-({5-chloro-1H-imidazo[4,5-b]pyridin-2-yl}methyl)-4-[(2,4-dichlorophenyl)methyl]-2-methanesulfinyl-1H-imidazole] | 1270 | 19.4 | 0.795 (≈ 1.75 µM) | 2.36 (≈ 5.19 µM) | 98.6 | – | – | – | – | – | – | 178 | < 25 | > 4 | 1.99 (≈ 4.38 µM) | < 40 | – |
| C[S+]([O-])c1nc(Cc2ccc(Cl)cc2Cl)cn1Cc1nc2ccc(F)nc2[nH]1 (centres unmarked) [Compound 2120, 4-[(2,4-dichlorophenyl)methyl]-1-({5-fluoro-1H-imidazo[4,5-b]pyridin-2-yl}methyl)-2-methanesulfinyl-1H-imidazole] | 1230 | 13.6 | 1.26 (≈ 2.87 µM) | – | < 40 | – | – | – | – | – | – | 295 | < 25 | > 4 | 0.336 (≈ 0.767 µM) | < 40 | – |
